Source: US7384734B2, “Compositions and methods for determining the susceptibility of a pathogenic virus to protease inhibitors” (Monogram Biosciences, Inc., priority 2002, dated 2008)

System: HIV-1 from patient plasma samples
Experiment: PHENOSENSE HIV phenotypic drug susceptibility assay (fold change in IC50 versus NL4-3 reference strain)
Type: cell-based
Excerpt: A “fold change” is a numeric comparison of the drug susceptibility of a patient virus and a drug-sensitive reference virus. It is the ratio of the Patient IC50 to the drug-sensitive reference IC50, i.e., Patient IC50/Reference IC50=Fold Change (“FC”). […] A fold change less than 1 indicates the patient virus is more sensitive than the drug-sensitive reference virus. […] A fold change less than the clinical cutoff value means the patient virus is sensitive to that drug.
In one embodiment, the phenotypic analysis is performed using PHENOSENSE™ (ViroLogic Inc., South San Francisco, Calif.). See Petropoulos et al., 2000, Antimicrob. Agents Chemother. 44:920-928; U.S. Pat. Nos. 5,837,464 and 6,242,187. PHENOSENSE™ is a phenotypic assay that achieves the benefits of phenotypic testing and overcomes the drawbacks of previous assays.
A resistance test vector (“RTV”) can then be constructed by incorporating the amplified viral gene sequences into a replication defective viral vector by using any method known in the art of incorporating gene sequences into a vector. In one embodiment, restrictions enzymes and conventional cloning methods are used. See Maniatis et al., 1989, Molecular Cloning: A Laboratory Manual, Cold Spring Harbor Laboratory, N.Y. and Ausubel et al., 1989, Current Protocols in Molecular Biology, Greene Publishing Associates and Wiley Interscience, N.Y. In some embodiments, ApaI and PinAI restriction enzymes are used. Preferably, the replication defective viral vector is the indicator gene viral vector (“IGVV”). In some embodiments, the viral vector contains a means for detecting replication of the RTV. Preferably, the viral vector contains a luciferase expression cassette.
The assay can be performed by first co-transfecting host cells with RTV DNA and a plasmid that expresses the envelope proteins of another retrovirus, for example, amphotropic murine leukemia virus (MLV). Following transfection, virus particles can be harvested and used to infect fresh target cells. The completion of a single round of viral replication can be detected by the means for detecting replication contained in the vector. In one embodiment, the completion of a single round of viral replication results in the production of luciferase. Serial concentrations of anti-viral agents can be added at either the transfection step or the infection step.
Susceptibility to the anti-viral agent can be measured by comparing the replication of the vector in the presence and absence of the anti-viral agent. For example, susceptibility to the anti-viral agent can be measured by comparing the luciferase activity in the presence and absence of the anti-viral agent. Susceptible viruses would produce low levels of luciferase activity in the presence of anti-viral agents, whereas viruses with reduced susceptibility would produce higher levels of luciferase activity.
The phenotypic assay was conducted using the PHENOSENSE™ (Virologic, South San Francisco, Calif.) HIV assay (Petropoulos et al., 2000, Antimicrob. Agents Chemother. 44:920-928; U.S. Pat. Nos. 5,837,464 and 6,242,187). Plasma samples were collected from HIV-1-infected patients. Repeat samples from the same patient were removed to prevent possible bias resulting from unique combinations of mutations.
The genotype data was obtained by sequencing the protease of the HIV-1 present in each patient's sample and determining the sequence changes with respect to the sequence of the NL4-3 (GenBank Accession No. AF324493) HIV. The amino sequence for the NL4-3 protease is provided in SEQ. ID. No. 1 (FIG. 12A) and the nucleic acid sequence for the NL4-3 protease gene is provided in SEQ. ID. No. 2 (FIG. 12B).

[1] = genotype group: 32, 46, 47, 54, n=4
[2] = genotype group: 32, 47, 54, 84, n=5
[3] = genotype group: 32, 47, 54, n=17
[4] = genotype group: 46 (M46I or L), 54, n=16
[5] = genotype group: 46, 54, 84, n=29
[6] = genotype group: 47, 54, 84, n=3
[7] = genotype group: 54 (I54L or M only), n=9
[8] = genotype group: not containing any tested mutation, n=1096
[9] = genotype group: protease mutation 32, n=26
[10] = genotype group: wild-type (all primary positions), n=623

In the case of `CC(C)CN(C[C@@H](O)[C@H](Cc1ccccc1)NC(=O)O[C@H]1CCOC1)S(=O)(=O)c1ccc(N)cc1` [APV, amprenavir], the “median FC in each group” value (each group carrying APV resistance mutations (Table 9)) is reported as no less than 9.5 fold, the “Median FC” value (genotype group: 32, 46, 47, 54, 84, n=6) is reported as 130 and the “Median FC” value [1] is reported as 130. For the same compound, the “Median FC” value [2] was 130, the “Median FC” value [3] was 40 and the “Median FC” value (genotype group: 32, 47, n=23) was 12. The “Median FC” value (genotype group: 32, 84, n=3) was 51, the “Median FC” value [4] was 84 and the “Median FC” value [5] was 47. The “Median FC” value [6] was 24, the “Median FC” value (genotype group: 47, 54, n=3) was 42 and the “Median FC” value (genotype group: 47, 84, n=4) was 12. For the same compound, the “Median FC” value (genotype group: 47, n=8) was 26, the “Median FC” value (genotype group: 50, n=42) was 20 and the “Median FC” value [7] was 22. The “Median FC” value (genotype group: 54, 84, n=22) was 67, the “Median FC” value (genotype group: 84, n=247) was 11 and the “Median FC” value [8] was 1.6. For the same compound, the “Median FC” value [9] was 9.5 and the “Median FC” value [10] was 0.6.

`Cc1cccc(C)c1OCC(=O)N[C@@H](Cc1ccccc1)[C@@H](O)C[C@H](Cc1ccccc1)NC(=O)[C@H](C(C)C)N1CCCNC1=O` [LPV, lopinavir] was tested, and the “Median FC” value [1] was 208, the “Median FC” value [2] was 227 and the “Median FC” value [3] was 146. For the same compound, the “Median FC” value (genotype group: 32, 47, n=23) was 7.5, the “Median FC” value (genotype group: 32, 84, n=3) was 124 and the “Median FC” value [4] was 138. For the same compound, the “Median FC” value [5] was 30, the “Median FC” value [6] was 20 and the “Median FC” value (genotype group: 47, 54, n=3) was 88. The “Median FC” value (genotype group: 47, 84, n=4) was 28, the “Median FC” value (genotype group: 50, n=42) was 54 and the “Median FC” value [7] was 160. For the same compound, the “Median FC” value (genotype group: 54, 84, n=22) was 93, the “Median FC” value (genotype group: 84, n=247) was 7.1 and the “Median FC” value [8] was 2.1. The “Median FC” value [9] was 12 and the “Median FC” value [10] was 0.6.
